Reference: patent US20230097253A1, “NOVEL QUINAZOLINE COMPOUND AS THERAPEUTIC AGENT FOR METABOLIC DISORDERS” (BIOWAY., INC, priority 2020, published 2023)

Columns and labels:
[1] = system: steatosis-induced Huh7 cells; assay: Fat globule reducing effect by Oil-Red-O staining, compared to existing developed materials; type: cell-based; conditions: FIG. 3
Procedure: In order to confirm the inhibition of fat accumulation in steatosis-induced liver cells, Huh7 cells were cultured in an incubator set at 37° C., 95% humidity, and 5% C02.
Additionally, Huh7 cells were proliferated to a confluency of 80-90% on a plate using a growth medium (Dulbecco's modified Eagle's medium (DMEM) supplemented with 10% fetal bovine serum (FBS), 100 U/ml of penicillin, and 100 μg/ml of streptomycin), and then used for the experiment.
In order to confirm the ability of BW-3290 to inhibit fat globule accumulation in steatosis-induced liver cells compared to the existing material under development, the liver cells were treated with palmitic acid (PA) bound to 2% BSA at a concentration of 250 μM except for the control group to induce steatosis, and then fat globules were stained through Oil-Red-O staining.
First, liver cells were cultured to grow 80-90% confluency in a 12 well plate, and the test material, BW-3290, were diluted in the culture medium that induced steatosis and the liver cells, except for the control group, were treated with 0.5 μM, 2.5 μM, 5 μM, and […].
Additionally, after removing the cell supernatant from the wells for Oil-Red-O staining, the washing process was performed twice with PBS.
Additionally, after washing, the resultant was fixed with 4% paraformaldehyde for 30 minutes. […]

SIRT1 = target: T1, SIRT1 (Homo sapiens, UniProt Q96EB6); assay: Measurement of SIRT1 activity (Sirt1 direct fluorescent screening assay kit); type: biochemical; conditions: compared with the control (RSV, resveratrol); FIG. 14
T1 construct: purchased Cayman
T1 sequence (Q96EB6 1-747): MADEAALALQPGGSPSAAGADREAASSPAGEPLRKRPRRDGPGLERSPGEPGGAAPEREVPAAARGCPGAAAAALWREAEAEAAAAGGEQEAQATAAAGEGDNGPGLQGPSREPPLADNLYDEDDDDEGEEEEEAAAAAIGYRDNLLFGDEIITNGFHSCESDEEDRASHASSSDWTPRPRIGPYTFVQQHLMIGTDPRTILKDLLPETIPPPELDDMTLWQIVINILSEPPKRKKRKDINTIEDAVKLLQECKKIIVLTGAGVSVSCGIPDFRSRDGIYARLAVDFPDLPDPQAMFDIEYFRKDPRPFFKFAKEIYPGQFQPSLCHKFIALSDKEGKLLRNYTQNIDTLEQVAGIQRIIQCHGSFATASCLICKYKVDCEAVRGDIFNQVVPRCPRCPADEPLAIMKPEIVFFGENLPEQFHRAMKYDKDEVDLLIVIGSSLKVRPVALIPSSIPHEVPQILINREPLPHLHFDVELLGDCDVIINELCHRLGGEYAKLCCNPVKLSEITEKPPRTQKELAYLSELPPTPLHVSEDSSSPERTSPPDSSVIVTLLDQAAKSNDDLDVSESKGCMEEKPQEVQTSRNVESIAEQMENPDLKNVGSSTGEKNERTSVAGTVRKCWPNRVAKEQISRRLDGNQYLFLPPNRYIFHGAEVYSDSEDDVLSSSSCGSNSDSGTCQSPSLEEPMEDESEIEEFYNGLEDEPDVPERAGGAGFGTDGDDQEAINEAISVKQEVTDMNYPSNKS
Procedure: All of the materials were provided from Sirt1 direct fluorescent screening assay kit (Cayman, Ann Arbor, Mich., USA).
SIRT1, p53 conjugated aminomethylcoumarin (AMC) protein, and 3 mM NAD+ were added to diluted assay buffer (50 mM Tris-HCl, pH 8.0, 137 mM NaCl, 2.7 mM KCl, and 1 mM MgCl2).
Three 100% initial activity wells among the 96-wells were added with 25 μL of assay buffer, 5 μL of diluted SIRT1, and 5 μL of a solvent.
Three background wells among the 96-wells were added with 30 μL of assay buffer and […].
Three sample wells among the 96-wells were added with 25 μL of assay buffer, 5 μL of diluted SIRT1, and 5 μL of a diluted test compound. The final DMSO concentration was lower than 2%. […]
After removing the plate cover, the plate was read with Cytation 5 using an excitation wavelength at 360 nm and an emission wavelength at 450 nm.
Then, the average level of fluorescence for each sample was measured.
The fluorescence level of the background well was subtracted from the fluorescence level of the 100% starting active well and that of the sample well.
To determine the percentage of each sample, each sample value was subtracted from the 100% initial activity value, divided by the 100% initial activity value, and multiplied by 100, and the resulting value was added to 100 and expressed as a percentage. […]

With `CC(C)C(Nc1ncnc2nc[nH]c12)c1nc2cccc(Cl)c2c(=O)n1-c1ccccc1` (stereo not drawn) [BW-3290, 2-(1-((7H-purin-6-yl)amino)-2-methylpropyl)-5-chloro-3-phenylquinazolin-4(3H)-one] the “fat globule staining (Oil-Red-O) compared to PA” value ([1]; 250 μM PA, 0.5, 2.5, 5 and 10 μM, concentration dependent) was “lower level of fat globule staining compared to PA”, the “staining of fat globules in comparison with PF-06409577 and elafibranor” value ([1]; 250 μM PA, at the same concentration of 10 μM and at lower concentrations) was “reduced” and the SIRT1 activity level (SIRT1) was “further increases”.
